Values quoted from earlier work in patent US11530413B2, “Compositions and methods to treat cancer” (NOVARTIS AG, priority 2017, dated 2022).
Where two headings read alike, the source gives them in different places.

Tests used:
CDK2 = settings: read-out: Ki as CDK inhibitor
CBFB [1] = target: T1, CBFB (Homo sapiens, UniProt Q13951); settings: read-out: IC50 as CBFB inhibitor
T1 sequence (Q13951 1-182): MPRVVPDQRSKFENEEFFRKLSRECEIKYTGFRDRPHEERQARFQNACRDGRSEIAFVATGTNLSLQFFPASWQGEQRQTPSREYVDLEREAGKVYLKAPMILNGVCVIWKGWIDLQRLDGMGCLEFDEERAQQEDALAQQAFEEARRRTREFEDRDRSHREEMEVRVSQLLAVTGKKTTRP

CDK = settings: read-out: IC50 as multi-CDK inhibitor
[2] = target: T2, CBFbeta association with Runx1 (Homo sapiens, UniProt Q13951)
T2 sequence (Q13951 1-141 limits assumed): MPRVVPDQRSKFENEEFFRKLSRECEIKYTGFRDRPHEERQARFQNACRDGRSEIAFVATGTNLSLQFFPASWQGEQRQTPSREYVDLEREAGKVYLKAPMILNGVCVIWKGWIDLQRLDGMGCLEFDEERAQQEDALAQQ

GATA3 = settings: target of the IC50 not stated; named as GATA3 inhibitor; read-out: IC50 of the steroid
MITF = target: T3, MITF (Homo sapiens, UniProt O75030); settings: read-out: IC50 as MITF inhibitor
T3 sequence (O75030 1-526): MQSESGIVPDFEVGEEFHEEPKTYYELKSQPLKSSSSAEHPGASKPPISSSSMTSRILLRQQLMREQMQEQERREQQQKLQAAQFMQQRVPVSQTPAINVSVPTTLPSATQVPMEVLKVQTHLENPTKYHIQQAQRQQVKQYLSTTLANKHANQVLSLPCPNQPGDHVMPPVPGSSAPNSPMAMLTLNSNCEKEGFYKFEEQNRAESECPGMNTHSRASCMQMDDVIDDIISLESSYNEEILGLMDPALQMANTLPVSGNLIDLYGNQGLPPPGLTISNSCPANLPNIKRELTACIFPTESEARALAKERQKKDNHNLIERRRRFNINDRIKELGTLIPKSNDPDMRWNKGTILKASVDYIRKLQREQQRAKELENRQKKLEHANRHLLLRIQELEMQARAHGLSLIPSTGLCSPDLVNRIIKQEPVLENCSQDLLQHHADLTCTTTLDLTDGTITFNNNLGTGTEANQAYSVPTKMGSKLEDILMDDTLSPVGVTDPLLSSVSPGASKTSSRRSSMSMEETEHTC

CBFB [3] = target: T1, CBFB; settings: read-out: IC50 as CBFB inhibitor; remark: listed apart in the source
FLI1 = settings: read-out: IC50 as FLI1 inhibitor

## CCNCc1cncc(-c2cccc3[nH]nc(-c4nc5c(F)cc(F)cc5[nH]4)c23)c1C [AG-024322, N-((5-(3-(4,6-difluoro-1H-benzo[d]imidazol-2-yl)-1H-indazol-4-yl)-4-methylpyridin-3-yl)methyl)ethanamine]
CDK2
  Ki: 0.001 to 0.003 µM

## COc1cccnc1-c1nc2cc(OC(F)(F)F)ccc2[nH]1 [AI-10-104]
CBFB [1]
  IC50: 1.25 µM

## O=C(NC1CCNCC1)c1n[nH]cc1NC(=O)c1c(Cl)cccc1Cl [AT7519, 4-[(2,6-Dichlorobenzoyl)amino]-N-(4-piperidinyl)-1H-pyrazole-3-carboxamide]
CDK
  IC50: 0.01 to 0.21 µM

## CCc1sc(N)nc1-c1ccc(OC)cc1 [CBFB inhibitor, 5-ethyl-4-(4-methoxyphenyl)-2-thiazolamine]
[2]
  IC50, binds CBFbeta and prevents its association with Runx1: 3.2 µM

## C[C@@H]1C[C@H]2[C@@H]3CCC4=CC(=O)C=C[C@]4(C)[C@@]3(F)[C@@H](O)C[C@]2(C)[C@@]1(O)C(=O)CO [Dexamethasone, (8S,9R,10S,11S,13S,14S,16R,17R)-9-Fluoro-11,17-dihydroxy-17-(2-hydroxyacetyl)-10,13,16-trimethyl-6,7,8,9,10,11,12,13,14,15,16,17-dodecahydro-3H-cyclopenta[a]phenanthren-3-one]
GATA3
  IC50: 0.01 µM

## CN1CC[C@H](c2c(O)cc(O)c3c(=O)cc(-c4ccccc4Cl)oc23)[C@H](O)C1 [Flavopiridol, 2-(2-chlorophenyl)-5,7-dihydroxy-8-[(3S,4R)-3-hydroxy-1-methyl-4-piperidinyl]-4-chromenone]
CDK
  IC50: ~0.04 µM

## NS(=O)(=O)c1ccc(NC2=CC(=O)c3ccccc3C2=O)cc1 [ML329, 4-((1,4-dioxo-1,4-dihydronaphthalen-2-yl)amino)benzenesulfonamide]
MITF
  IC50: 1.2 µM

## O=C1CN=C(c2ccc[nH]2)c2cc(Cl)ccc2N1 [Ro5-3335, 7-Chloro-1,3-dihydro-5-(1H-pyrrol-2-yl)-2H-1,4-benzodiazepin-2-one]
CBFB [3]
  IC50: 1.1 µM

## COc1ccc(C(=O)C[C@]2(O)C(=O)Nc3c(Cl)ccc(Cl)c32)cc1 [TK-216, 4,7-dichloro-1,3-dihydro-3-hydroxy-3-[2-(4-methoxyphenyl)-2-oxoethyl]-(3R)-2H-indol-2-one]
FLI1
  IC50: 0.449 µM
